In patent US4427671A, “Steroids esterified in position 17 and thioesterified in position 21, a process for preparing them and their use as medicaments” (priority 1981, dated 1984):

How the values were obtained:
Format in all cases: in vivo, male Sprague-Dawley I.O.P.S. rats
granuloma = assay: Local anti-inflammatory activity: inhibition of granuloma formation around implanted cotton wool pellet; settings: Table 1; for R 1 (relative local anti-inflammatory activity compared with betamethasone 17,21-dipropionate): D.P.B. = 1, calculated from ED50; for ED50 (local anti-inflammatory activity, 50% inhibition in granuloma weight): rat, cotton pellet granuloma, six days after implantation
Experimental: A. Winter and C. C. Porter (J. Am. Pharm. Ass. 1957, 46, 9, pages 515-519).
(§1) The principle of the test consists in implanting a pellet of cotton wool in the dorsal subcutaneous tissue of the animal. The corticoids to be studied are added to the pellet so that the following tests can be carried out:
(1) Determination of the local anti-inflammatory activity
The presence of products within the pellet may inhibit or prevent the formation of a granuloma.
(§2) The animals are divided into random homogeneous groups of 10 male Sprague-Dawley I.O.P.S. rats with a body weight of between 100 and 120 grams.
(§3) The pellets to be implanted weigh from 35 to 40 mg and are prepared from balls of dental cotton wool. Before being inserted, each pellet is weighed and impregnated with the precise quantity of the product which is to be studied, dissolved in 0.2 ml of chloroform. The chloroform is eliminated by evaporation over a period of 24 hours at ambient temperature.
(§4) Before implantation, each pellet is impregnated with a solution of antibiotics:
Streptomycin 0.1 gram/ml.
(§5) The animals are anaesthetised with ether, and then two pellets are implanted in each animal in the dorsal subcutaneous tissue, on each side of the median line:
(§6) on the left, the pellet containing the product to be tested (treated animal) or the carrier only (control animal);
(§7) on the right, the pellet containing the carrier only.
(§8) The animals are given normal food and are sacrificed six days after the pellets have been implanted.
(1) Local anti-inflammatory activity
The pellets surrounded by granulomatous tissue are carefully removed and weighed, and then dried until a constant weight is obtained.
The relative activity of the test products compared with betamethasone 17,21-dipropionate is calculated according to the following equation: [formula]

thymus = assay: Systemic activity after local administration: effect on the weight of the thymus
Experimental: (§9) The pharmacological activity of the products described in the invention was tested in the rat using a technique similar to that described by C. A. Winter and C. C. Porter (J. Am. Pharm. Ass. 1957, 46, 9, pages 515-519).
as §1
(§10) (2) Determination of the systemic activity of the products after local administration
(§11) Local application of the corticoids may result, inter alia, in:
(a) a reduction in the defence systems of the organism, the most notable sign of which is a reduction in the weight of the animals' thymuses.
as §2, §3, §4, §5, §6, §7, §8
(2) Determination of the systemic effect
The thymuses are taken from the same animals and weighed. Using the same type of calculation, an ED 50 is determined, which corresponds to the dosage of product resulting in a 50% decrease in weight of the thymuses, compared with the control animals.

[1] = Systemic activity after local administration: effect on weight gain
Experimental: as §9, §1, §10, §11
(b) Disruption of the protein metabolism which causes tissue fusion, resulting in an inhibition of the weight increase in animals.
as §2, §3, §4, §5, §6, §7, §8
(b) Effect on weight gain
The weight gain over six days is determined on the animals before they are sacrificed.
The activity of the products was expressed as the percentage inhibition in the weight gain of the treated animals compared with the weight gain in the control animals.
The ED 30 which corresponds to a 30% inhibition in the weight gain was determined.

[2] = D.P.B. = 1, calculated from ED50, Table 2
[3] = rat, local application, six days, Table 2
[4] = D.P.B. = 1, calculated from ED30, Table 3
[5] = rat, local application, weight gain over six days, Table 3

| Compound | R 1 (relative local anti-inflammatory activity compared with betamethasone 17,21-dipropionate) (granuloma) | ED50 (local anti-inflammatory activity, 50% inhibition in granuloma weight) (granuloma) | R 2 (relative effect on thymus weight compared with D.P.B.) (thymus; [2]) | ED50 (50% decrease in weight of the thymuses) (thymus; [3]) | R 3 (relative activity on weight gain compared with D.P.B.) [1, 4] | ED30 (30% inhibition in the weight gain) [1, 5] | ED50 (50% decrease in weight of the thymuses) (thymus; rat, in vivo) | R 2 (relative effect on thymus weight compared with D.P.B.) (thymus; rat, in vivo, 8640 min) | ED30 (30% inhibition in the weight gain) ([1]; rat, in vivo, 8640 min) | R 3 (relative activity on weight gain compared with D.P.B.) ([1]; rat, in vivo, 8640 min) | ED50 (50% decrease in weight of the thymuses) (thymus; rat, in vivo, 8640 min) |
| --- | --- | --- | --- | --- | --- | --- | --- | --- | --- | --- | --- |
| CCC(=O)OCC(=O)[C@@]1(OC(=O)CC)[C@@H](C)C[C@H]2[C@@H]3CCC4=CC(=O)C=C[C@]4(C)[C@@]3(Cl)[C@@H](O)C[C@@]21C [Beclomethasone dipropionate, beclomethasone 17,21-dipropionate, reference compound] | < 0.2 | > 5 mg/pellet | 0.27 | 3.1 mg/pellet | 0.16 | 5 mg/pellet |  |  |  |  |  |
| CCC(=O)OCC(=O)C1(OC(=O)CC)C(C)CC2C3CCC4=CC(=O)C=CC4(C)C3(F)C(O)CC21C (stereo not drawn) [D.P.B., betamethasone 17,21-dipropionate, reference compound] | 1 | 1.610 mg/pellet | 1 | 0,86 mg/pellet | 1 | > 0.8 mg/pellet |  |  |  |  |  |
| CCCCC(=O)O[C@]1(C(=O)CSC(=O)CCCC)CC[C@H]2[C@@H]3CCC4=CC(=O)CC[C@]4(C)[C@H]3[C@@H](O)C[C@@]21C [Ex. 1, 11β-hydroxy-pregn-4-ene-3,20-dione (or hydrocortisone) 17-valerate, 21-thiovalerate] | > 8 | < 0.200 mg/pellet |  |  |  |  | zero to 3.2 | < 0.27 | > 3.2 mg/pellet | < 0.25 |  |
| CCCCC(=O)O[C@]1(C(=O)CSC(=O)C(C)(C)C)CC[C@H]2[C@@H]3CCC4=CC(=O)CC[C@]4(C)[C@H]3[C@@H](O)C[C@@]21C [Ex. 2, 11β-hydroxy-pregn-4-ene-3,20-dione (or hydrocortisone) 17-valerate, 21-thiopivalate] | 0.75 | 2.140 mg/pellet |  |  |  |  | zero to 3.4 | < 0.25 | > 3.4 mg/pellet | < 0.24 |  |
| CCCC(=O)O[C@]1(C(=O)CSC(C)=O)CC[C@H]2[C@@H]3CCC4=CC(=O)C=C[C@]4(C)[C@H]3C(=O)C[C@@]21C [Ex. 3, Pregna-1,4-diene-3,11,20-trione (or prednisone) 17-butyrate, 21-thioacetate] | 2.7 | 0.600 mg/pellet |  |  |  |  |  | < 0.17 | > 5 mg/pellet | < 0.16 | > 5 mg/pellet |
| CC(=O)SCC(=O)[C@@]1(OC(=O)c2ccccc2)CC[C@H]2[C@@H]3C[C@H](C)C4=CC(=O)C=C[C@]4(C)[C@H]3[C@@H](O)C[C@@]21C [Ex. 4, 11β-hydroxy-6α-methyl-pregna-1,4-diene-3,20-dione (or 6β-methylprednisolone) 17-benzoate, 21-thioacetate] | 29 | 0.056 mg/pellet |  |  |  |  |  | < 0.17 | > 5 mg/pellet | < 0.16 | > 5 mg/pellet |
| CCC(=O)O[C@]1(C(=O)CSC(=O)CC)CC[C@H]2[C@@H]3C[C@H](C)C4=CC(=O)C=C[C@]4(C)[C@H]3[C@@H](O)C[C@@]21C [Ex. 5, 11β-hydroxy-6α-methyl-pregna-1,4-diene-3,20-dione (or 6α-methylprednisolone) 17-propionate, 21-thiopropionate] | 7.7 | 0.210 mg/pellet |  |  |  |  |  | < 0.86 | > 1 mg/pellet | < 0.8 | > 1 mg/pellet |
| CCCCC(=O)O[C@]1(C(=O)CSC(=O)CCCC)CC[C@H]2[C@@H]3C[C@H](C)C4=CC(=O)C=C[C@]4(C)[C@H]3[C@@H](O)C[C@@]21C [Ex. 6, 11β-hydroxy-6α-methyl-pregna-1,4-diene-3,20-dione (or 6α-methylprednisolone) 17-valerate, 21-thiovalerate] | 8.9 | 0.180 mg/pellet |  |  |  |  |  | < 0.86 | > 1 mg/pellet | < 0.8 | > 1 mg/pellet |
| CCCCC(=O)O[C@]1(C(=O)CSC(C)=O)CC[C@H]2[C@@H]3C[C@H](C)C4=CC(=O)C=C[C@]4(C)[C@H]3[C@@H](O)C[C@@]21C [Ex. 7, 11β-hydroxy-6α-methyl-pregna-1,4-diene-3,20-dione (or 6α-methylprednisolone) 17-valerate, 21-thioacetate] | 2.0 | 0.800 mg/pellet |  |  |  |  |  | < 0.86 | > 1 mg/pellet | < 0.8 | > 1 mg/pellet |
| CC(=O)OC1(C(=O)CSC(C)=O)C(C)CC2C3CCC4=CC(=O)C=CC4(C)C3(F)C(O)CC21C (stereo not drawn) [Ex. 8, 9α-fluoro-11β-hydroxy-16β-methyl-pregna-1,4-diene-3,20-dione (or betamethasone) 17-acetate, 21-thioacetate] | 22 | 0.072 mg/pellet |  |  |  |  |  | 0.71 | 1 mg/pellet | 0.8 | 1.20 mg/pellet |
| CCC(=O)SCC(=O)C1(OC(C)=O)C(C)CC2C3CCC4=CC(=O)C=CC4(C)C3(F)C(O)CC21C (stereo not drawn) [Ex. 9, 9α-fluoro-11β-hydroxy-16β-methyl-pregna-diene-3,20-dione (or betamethasone) 17-acetate, 21-thiopropionate] | 16 | 0.100 mg/pellet |  |  |  |  |  | 0.51 | 1 mg/pellet | 0.8 | 1.70 mg/pellet |
